The results in this text go back to ChEMBL document CHEMBL5291721, “A preclinical secondary pharmacology resource illuminates target-adverse drug reaction associations of marketed drugs” (Nat Commun, 2023).

Test [1] addresses Sodium-dependent serotonin transporter (Homo sapiens, UniProt P31645).
Test [2] addresses T1, Type-1 angiotensin II receptor (Homo sapiens, UniProt P30556).
T1 sequence (P30556 whole entry): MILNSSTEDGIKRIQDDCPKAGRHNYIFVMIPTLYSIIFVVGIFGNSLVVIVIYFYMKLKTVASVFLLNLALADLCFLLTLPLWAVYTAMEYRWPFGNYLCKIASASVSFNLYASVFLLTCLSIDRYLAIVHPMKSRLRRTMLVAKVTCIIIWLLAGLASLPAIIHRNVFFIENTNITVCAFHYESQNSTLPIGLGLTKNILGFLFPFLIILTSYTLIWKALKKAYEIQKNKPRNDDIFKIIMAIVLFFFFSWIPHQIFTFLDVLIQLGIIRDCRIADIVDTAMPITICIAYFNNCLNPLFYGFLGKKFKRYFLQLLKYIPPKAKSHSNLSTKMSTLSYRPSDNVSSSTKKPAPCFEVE

The target in another test is T2, Thromboxane A2 receptor (Homo sapiens, UniProt P21731).
T2 sequence (P21731 whole entry): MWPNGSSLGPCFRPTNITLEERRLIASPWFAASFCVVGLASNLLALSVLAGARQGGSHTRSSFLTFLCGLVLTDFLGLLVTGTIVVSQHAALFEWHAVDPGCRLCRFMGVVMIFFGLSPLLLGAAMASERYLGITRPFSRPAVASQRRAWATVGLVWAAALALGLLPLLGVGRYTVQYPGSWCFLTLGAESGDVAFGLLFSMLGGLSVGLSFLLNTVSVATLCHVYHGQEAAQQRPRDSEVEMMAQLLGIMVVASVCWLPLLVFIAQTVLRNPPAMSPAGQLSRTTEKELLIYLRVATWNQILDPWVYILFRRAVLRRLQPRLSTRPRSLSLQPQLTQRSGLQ
Type of test: functional, cell-based.

Test [3] has as its target Sodium-dependent noradrenaline transporter (Homo sapiens, UniProt P23975).
Test [4] concerns the target Sodium-dependent dopamine transporter (Homo sapiens, UniProt Q01959).
Test [5] has as its target T3, 5-hydroxytryptamine receptor 3A (Homo sapiens, UniProt P46098).
T3 sequence (P46098 whole entry): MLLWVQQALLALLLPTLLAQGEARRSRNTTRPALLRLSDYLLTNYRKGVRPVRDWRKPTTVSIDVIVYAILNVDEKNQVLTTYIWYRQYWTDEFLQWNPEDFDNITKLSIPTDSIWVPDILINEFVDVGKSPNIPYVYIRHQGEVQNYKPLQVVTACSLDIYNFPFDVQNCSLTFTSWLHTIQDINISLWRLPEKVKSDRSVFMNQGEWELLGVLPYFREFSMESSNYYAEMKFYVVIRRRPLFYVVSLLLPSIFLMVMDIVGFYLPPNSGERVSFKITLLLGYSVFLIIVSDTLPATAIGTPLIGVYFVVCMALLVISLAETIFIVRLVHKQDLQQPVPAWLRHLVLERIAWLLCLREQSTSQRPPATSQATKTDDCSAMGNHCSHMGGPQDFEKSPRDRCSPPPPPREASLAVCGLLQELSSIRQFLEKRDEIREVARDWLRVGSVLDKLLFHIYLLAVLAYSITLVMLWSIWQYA
Type of test: functional.

Another test addresses Mu-type opioid receptor (Homo sapiens, UniProt P35372).
Test [6] addresses T4, Muscarinic acetylcholine receptor M1 (Homo sapiens, UniProt P11229).
T4 sequence (P11229 whole entry): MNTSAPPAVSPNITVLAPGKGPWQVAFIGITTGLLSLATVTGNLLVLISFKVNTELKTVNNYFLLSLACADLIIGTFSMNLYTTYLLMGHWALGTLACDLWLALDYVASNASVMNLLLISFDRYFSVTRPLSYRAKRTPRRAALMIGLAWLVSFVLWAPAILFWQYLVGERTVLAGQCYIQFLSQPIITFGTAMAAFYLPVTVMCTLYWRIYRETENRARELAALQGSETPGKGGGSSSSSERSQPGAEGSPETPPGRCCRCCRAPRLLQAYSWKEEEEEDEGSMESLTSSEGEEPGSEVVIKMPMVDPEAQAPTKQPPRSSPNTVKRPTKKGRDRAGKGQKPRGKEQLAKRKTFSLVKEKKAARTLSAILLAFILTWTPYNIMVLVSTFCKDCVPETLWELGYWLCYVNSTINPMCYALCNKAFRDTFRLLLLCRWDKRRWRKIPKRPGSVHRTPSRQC
The test is classed as functional.

In test [7] the target is Beta-2 adrenergic receptor (Homo sapiens, UniProt P07550).
Test [8] concerns the target Growth hormone secretagogue receptor type 1 (Homo sapiens, UniProt Q92847).
In the next test the target is Adenosine receptor A2a (Homo sapiens, UniProt P29274).
In test [9] the target is 5-hydroxytryptamine receptor 2A (Homo sapiens, UniProt P28223). Type of test: functional, cell-based.
In test [10] the target is T5, Muscarinic acetylcholine receptor M2 (Homo sapiens, UniProt P08172).
T5 sequence (P08172 whole entry): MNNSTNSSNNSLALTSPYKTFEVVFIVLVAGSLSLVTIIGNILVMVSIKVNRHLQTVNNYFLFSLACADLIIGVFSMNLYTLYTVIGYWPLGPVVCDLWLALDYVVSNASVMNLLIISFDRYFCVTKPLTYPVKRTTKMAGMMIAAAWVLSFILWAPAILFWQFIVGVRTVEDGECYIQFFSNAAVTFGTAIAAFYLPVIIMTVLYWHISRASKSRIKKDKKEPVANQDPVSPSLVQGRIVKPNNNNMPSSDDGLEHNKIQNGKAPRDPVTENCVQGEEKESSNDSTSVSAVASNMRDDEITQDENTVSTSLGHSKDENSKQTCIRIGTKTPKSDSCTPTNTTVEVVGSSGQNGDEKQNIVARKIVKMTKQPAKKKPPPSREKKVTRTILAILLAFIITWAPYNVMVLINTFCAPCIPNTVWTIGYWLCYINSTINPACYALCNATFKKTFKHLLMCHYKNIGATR
Type of test: functional, cell-based.

Test [11] concerns the target cGMP-inhibited 3',5'-cyclic phosphodiesterase 3A (Homo sapiens, UniProt Q14432). The test is classed as functional.
Also: assay procedure not described here.

Chain of Sodium-dependent noradrenaline transporter (P23975 whole entry): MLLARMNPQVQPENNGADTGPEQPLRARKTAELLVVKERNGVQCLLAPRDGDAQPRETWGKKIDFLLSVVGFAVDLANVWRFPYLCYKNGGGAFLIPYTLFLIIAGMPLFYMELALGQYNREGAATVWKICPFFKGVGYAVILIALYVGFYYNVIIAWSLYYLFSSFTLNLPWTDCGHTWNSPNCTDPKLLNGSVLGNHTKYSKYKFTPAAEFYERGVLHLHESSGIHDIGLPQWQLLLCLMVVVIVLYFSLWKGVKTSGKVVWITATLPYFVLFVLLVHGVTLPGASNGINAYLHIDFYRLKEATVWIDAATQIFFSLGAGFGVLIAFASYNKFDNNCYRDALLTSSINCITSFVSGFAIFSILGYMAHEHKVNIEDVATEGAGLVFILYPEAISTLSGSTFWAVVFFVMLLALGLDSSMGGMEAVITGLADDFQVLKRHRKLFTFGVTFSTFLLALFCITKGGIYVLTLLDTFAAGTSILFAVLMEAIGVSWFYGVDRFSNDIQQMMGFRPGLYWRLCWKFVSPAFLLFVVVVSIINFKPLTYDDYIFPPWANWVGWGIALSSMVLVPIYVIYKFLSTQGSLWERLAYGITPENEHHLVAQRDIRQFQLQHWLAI
Chain of Sodium-dependent serotonin transporter (P31645 whole entry): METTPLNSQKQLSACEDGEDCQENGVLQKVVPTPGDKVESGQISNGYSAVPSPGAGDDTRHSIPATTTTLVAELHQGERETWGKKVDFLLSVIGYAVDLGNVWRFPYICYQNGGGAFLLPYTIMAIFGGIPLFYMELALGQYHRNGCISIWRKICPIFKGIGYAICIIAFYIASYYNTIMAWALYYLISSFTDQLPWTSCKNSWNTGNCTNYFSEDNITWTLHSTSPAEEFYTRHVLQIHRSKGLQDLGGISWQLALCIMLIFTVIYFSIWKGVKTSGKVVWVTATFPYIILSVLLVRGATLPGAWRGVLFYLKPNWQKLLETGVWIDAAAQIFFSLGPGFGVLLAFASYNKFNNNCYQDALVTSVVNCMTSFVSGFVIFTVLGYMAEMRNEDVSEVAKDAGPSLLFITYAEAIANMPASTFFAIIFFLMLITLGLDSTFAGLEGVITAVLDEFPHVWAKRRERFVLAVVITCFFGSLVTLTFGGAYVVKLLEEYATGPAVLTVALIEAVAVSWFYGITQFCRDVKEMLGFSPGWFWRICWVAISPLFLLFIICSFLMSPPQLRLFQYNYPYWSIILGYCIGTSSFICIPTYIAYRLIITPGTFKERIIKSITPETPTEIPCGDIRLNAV
Chain of Growth hormone secretagogue receptor type 1 (Q92847 whole entry): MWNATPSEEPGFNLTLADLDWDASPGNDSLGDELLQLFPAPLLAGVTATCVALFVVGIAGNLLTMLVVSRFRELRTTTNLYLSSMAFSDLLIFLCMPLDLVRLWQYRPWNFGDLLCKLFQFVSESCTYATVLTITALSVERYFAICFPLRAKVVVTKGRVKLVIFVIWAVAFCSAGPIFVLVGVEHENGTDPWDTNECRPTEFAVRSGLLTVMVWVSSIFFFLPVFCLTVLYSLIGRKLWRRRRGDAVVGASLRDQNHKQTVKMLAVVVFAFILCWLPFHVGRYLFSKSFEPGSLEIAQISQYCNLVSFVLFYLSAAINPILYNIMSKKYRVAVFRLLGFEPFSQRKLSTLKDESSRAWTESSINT
Chain of Sodium-dependent dopamine transporter (Q01959 whole entry): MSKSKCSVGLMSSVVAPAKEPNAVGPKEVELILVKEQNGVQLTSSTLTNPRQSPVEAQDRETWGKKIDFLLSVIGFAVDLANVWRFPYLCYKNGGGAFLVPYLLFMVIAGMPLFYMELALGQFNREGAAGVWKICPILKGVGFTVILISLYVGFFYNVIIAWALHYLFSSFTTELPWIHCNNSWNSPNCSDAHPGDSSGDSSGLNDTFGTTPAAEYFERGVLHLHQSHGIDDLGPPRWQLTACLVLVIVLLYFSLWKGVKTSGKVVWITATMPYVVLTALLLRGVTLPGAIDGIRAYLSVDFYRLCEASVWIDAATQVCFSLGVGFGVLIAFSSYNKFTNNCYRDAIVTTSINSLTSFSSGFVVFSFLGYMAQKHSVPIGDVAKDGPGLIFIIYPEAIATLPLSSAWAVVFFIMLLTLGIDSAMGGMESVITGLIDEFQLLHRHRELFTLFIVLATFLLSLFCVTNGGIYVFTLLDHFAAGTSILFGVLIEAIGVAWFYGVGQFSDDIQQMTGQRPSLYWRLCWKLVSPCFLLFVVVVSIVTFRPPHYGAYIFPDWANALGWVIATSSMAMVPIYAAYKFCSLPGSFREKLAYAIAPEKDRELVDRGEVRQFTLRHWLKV
Chain of Beta-2 adrenergic receptor (P07550 whole entry): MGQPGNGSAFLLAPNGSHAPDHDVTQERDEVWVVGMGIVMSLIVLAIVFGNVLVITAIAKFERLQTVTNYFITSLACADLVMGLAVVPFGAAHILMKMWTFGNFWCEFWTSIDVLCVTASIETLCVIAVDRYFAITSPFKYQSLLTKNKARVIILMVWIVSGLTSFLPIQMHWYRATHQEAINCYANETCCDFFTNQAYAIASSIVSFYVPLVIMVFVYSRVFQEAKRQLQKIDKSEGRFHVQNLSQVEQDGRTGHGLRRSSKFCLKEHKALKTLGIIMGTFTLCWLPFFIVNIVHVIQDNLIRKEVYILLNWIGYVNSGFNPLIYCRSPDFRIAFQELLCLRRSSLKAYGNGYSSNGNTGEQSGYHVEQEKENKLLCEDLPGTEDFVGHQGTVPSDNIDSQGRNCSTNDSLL
Chain of Adenosine receptor A2a (P29274 whole entry): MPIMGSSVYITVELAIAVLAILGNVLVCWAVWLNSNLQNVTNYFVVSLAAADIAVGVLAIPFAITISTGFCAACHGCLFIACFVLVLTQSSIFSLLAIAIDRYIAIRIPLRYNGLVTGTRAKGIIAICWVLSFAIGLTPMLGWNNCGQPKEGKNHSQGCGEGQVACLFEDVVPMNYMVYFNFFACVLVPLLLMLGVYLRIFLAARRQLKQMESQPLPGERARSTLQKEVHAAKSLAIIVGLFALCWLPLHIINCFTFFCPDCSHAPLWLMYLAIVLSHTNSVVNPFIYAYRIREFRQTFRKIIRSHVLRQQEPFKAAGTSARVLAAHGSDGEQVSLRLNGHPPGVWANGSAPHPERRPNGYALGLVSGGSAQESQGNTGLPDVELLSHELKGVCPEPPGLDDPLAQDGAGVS
Chain of cGMP-inhibited 3',5'-cyclic phosphodiesterase 3A (Q14432 whole entry): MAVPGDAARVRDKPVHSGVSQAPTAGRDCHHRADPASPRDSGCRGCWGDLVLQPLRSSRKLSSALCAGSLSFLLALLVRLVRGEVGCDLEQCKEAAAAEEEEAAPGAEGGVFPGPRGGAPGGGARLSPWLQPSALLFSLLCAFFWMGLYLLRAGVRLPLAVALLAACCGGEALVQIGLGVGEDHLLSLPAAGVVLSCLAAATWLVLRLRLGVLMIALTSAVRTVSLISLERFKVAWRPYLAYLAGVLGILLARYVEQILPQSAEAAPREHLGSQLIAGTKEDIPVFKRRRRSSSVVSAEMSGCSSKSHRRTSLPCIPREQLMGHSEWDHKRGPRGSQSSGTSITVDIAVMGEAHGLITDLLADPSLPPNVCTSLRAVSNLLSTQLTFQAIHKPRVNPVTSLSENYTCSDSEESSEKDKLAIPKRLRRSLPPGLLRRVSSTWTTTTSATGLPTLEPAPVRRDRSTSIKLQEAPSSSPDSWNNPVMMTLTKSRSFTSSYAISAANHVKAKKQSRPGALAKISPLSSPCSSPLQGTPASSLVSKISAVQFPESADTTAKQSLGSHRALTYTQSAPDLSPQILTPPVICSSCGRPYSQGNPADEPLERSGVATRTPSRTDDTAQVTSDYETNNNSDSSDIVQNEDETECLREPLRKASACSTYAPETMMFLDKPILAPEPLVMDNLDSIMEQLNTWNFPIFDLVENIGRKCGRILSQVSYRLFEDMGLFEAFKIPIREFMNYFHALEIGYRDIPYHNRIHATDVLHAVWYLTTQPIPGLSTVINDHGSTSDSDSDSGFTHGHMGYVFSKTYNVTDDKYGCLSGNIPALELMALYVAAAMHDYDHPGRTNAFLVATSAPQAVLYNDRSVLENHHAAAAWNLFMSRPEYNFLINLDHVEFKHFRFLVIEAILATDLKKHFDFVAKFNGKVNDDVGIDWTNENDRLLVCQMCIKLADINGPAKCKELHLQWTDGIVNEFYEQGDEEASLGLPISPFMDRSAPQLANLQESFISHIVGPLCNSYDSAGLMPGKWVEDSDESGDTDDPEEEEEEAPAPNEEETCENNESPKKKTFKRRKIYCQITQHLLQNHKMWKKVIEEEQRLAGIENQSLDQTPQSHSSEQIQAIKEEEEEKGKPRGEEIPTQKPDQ
Chain of Mu-type opioid receptor (P35372 whole entry): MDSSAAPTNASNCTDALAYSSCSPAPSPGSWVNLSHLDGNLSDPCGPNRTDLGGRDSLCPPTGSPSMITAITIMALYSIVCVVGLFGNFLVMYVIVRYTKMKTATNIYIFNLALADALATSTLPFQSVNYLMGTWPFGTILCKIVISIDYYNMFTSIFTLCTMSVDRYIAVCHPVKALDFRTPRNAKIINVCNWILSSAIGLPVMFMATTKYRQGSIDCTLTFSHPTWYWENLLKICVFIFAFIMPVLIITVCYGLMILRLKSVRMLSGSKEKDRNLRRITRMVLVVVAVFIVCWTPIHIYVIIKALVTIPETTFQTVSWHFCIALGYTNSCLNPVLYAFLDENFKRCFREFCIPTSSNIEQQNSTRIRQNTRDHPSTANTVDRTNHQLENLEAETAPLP

As usually defined, the AC50 is the midpoint of the concentration-response curve, whichever way the signal moves. Consider `CC(C(=O)O)c1ccc(N2CC=CC2)c(Cl)c1` (centres undefined) [PIRPROFEN], for which the AC50 in test [1] is more than 30 µM; in test [2], more than 30 µM; on Thromboxane A2 receptor it was more than 30 µM; in [3], more than 10 µM; in test [4] it was more than 10 µM; in test [5], more than 30 µM. In addition, the AC50 is more than 30 µM on Mu-type opioid receptor; more than 10 µM in [6]; more than 10 µM in test [7]; more than 30 µM in test [8]; more than 30 µM at Adenosine receptor A2a; more than 30 µM in test [9]. In addition, the AC50 was more than 10 µM in [10] and more than 30 µM in test [11].
For the compound `COc1cc2c(cc1OC)C(=O)C(CC1CCN(Cc3ccccc3)CC1)C2` (centres undefined) [DONEPEZIL], the AC50 was more than 30 µM in test [1]; 15.6 µM in test [2]; more than 30 µM at Thromboxane A2 receptor; 6.1 µM in test [3]; more than 30 µM in test [4]; more than 30 µM in test [5]. For the same compound, the AC50 on Mu-type opioid receptor is more than 30 µM; in test [6], 8.2 µM; in test [7] it was more than 10 µM; in test [8], more than 30 µM; on Adenosine receptor A2a, more than 30 µM; in test [9], more than 30 µM. In [11], this compound came in with an AC50 of more than 30 µM.
For the compound `OCCN1CCN(CCCN2c3ccccc3C=Cc3ccccc32)CC1` [OPIPRAMOL], the AC50 in test [1] was 11.7 µM; in [2] it was more than 30 µM; at Thromboxane A2 receptor, more than 30 µM; in test [3], more than 30 µM; in test [4], more than 30 µM; in [5], more than 30 µM. Further, the concentration at half-maximal activity (AC50) on Mu-type opioid receptor was 19.4 µM; in test [6] it was more than 30 µM; in test [8], more than 30 µM; on Adenosine receptor A2a it was more than 30 µM; in test [9], more than 30 µM; in test [10] it was more than 30 µM. This compound also came in with an AC50 in [11] of more than 30 µM.
With `CN(CCOc1ccc(NS(C)(=O)=O)cc1)CCc1ccc(NS(C)(=O)=O)cc1` [DOFETILIDE], the AC50 in test [1] is more than 30 µM; in [2], 9.5 µM; on Thromboxane A2 receptor, more than 30 µM; in test [3] it was more than 10 µM; in [4], more than 10 µM; in test [5], more than 30 µM. In addition, the AC50 on Mu-type opioid receptor is more than 30 µM; in [6], more than 10 µM; in test [7], more than 10 µM; in test [8], more than 30 µM; at Adenosine receptor A2a, more than 30 µM; in test [9], more than 30 µM. Also, the AC50 in test [10] and in [11] was more than 30 µM each time.
For `O=C(NC[C@H]1CN(c2ccc(N3CCOCC3=O)cc2)C(=O)O1)c1ccc(Cl)s1` [RIVAROXABAN], the AC50 (in test [1]; on Thromboxane A2 receptor; in test [3]; in test [4]; in test [5]; on Mu-type opioid receptor) was more than 30 µM throughout. Besides, the AC50 in [6], in test [9], in test [10] and in test [11] was more than 30 µM each time.
